According to US12371432B2, “Haloallylamine compounds and application thereof” (TransThera Sciences (Nanjing), Inc., priority 2019, dated 2025):
Counter-ions that a name gives are not always drawn.

What was measured:
MAO-B = biological target: T1, MAO-B (Homo sapiens, UniProt P27338); assay: Selectivity against MAO-B enzyme (MAO-Glo); assay type: biochemical
T1 construct: purchased Active Motif
T1 sequence (P27338 1-520): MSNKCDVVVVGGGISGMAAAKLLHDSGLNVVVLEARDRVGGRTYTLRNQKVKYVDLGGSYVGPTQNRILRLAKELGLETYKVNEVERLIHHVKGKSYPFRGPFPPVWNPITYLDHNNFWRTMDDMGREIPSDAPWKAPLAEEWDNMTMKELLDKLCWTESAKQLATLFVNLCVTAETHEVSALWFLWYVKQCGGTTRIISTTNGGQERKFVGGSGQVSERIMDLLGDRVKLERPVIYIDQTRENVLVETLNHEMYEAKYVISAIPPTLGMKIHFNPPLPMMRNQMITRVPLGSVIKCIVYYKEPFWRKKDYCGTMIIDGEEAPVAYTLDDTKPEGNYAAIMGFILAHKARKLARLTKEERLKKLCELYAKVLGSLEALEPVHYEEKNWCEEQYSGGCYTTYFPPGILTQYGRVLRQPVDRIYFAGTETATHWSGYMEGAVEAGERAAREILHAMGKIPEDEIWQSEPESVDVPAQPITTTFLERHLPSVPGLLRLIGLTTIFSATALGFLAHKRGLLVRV
Method: (1) Instrument, Consumable and Reagent
Microplate reader (Perkin Elmer, EnVision), 384-well plate (Perkin Elmer), centrifuge (Eppendorf), MAO-Glo™ (Promega), MAO-A (Active Motif) and MAO-B (Active Motif).
(2) Preparation of Concentration Gradient Compound Solutions
An appropriate amount of the compound to be tested was taken, dissolved in DMSO to 10 mM and then stored. The solution was then gradiently diluted 4-fold with DMSO, 6 concentration gradients in total.
(3) Preparation of Enzyme Solutions
MAO-A/B mother liquor was diluted with the experimental buffer for MAO-A/B to obtain enzyme solutions of 2× concentrations.
(4) Preparation of Substrate Mixtures of 2× Concentrations
The mother liquor of MAO-A/B substrate mixture was diluted with the experimental buffer for MAO-A/B to obtain substrate mixtures of 2× concentrations.
200 nL compound solutions or solvents of different concentrations and 10 μL MAO-A/B enzyme solutions of 2× concentrations were added into a 384-well plate, centrifuged at 1,000 rpm for 60 s, shaken to be mixed uniformly and then incubated at room temperature for 15 min. 10 μL substrate mixtures of 2× concentrations were then added into each well, and reaction was initiated. The 384-well plate was centrifuged at 1,000 rpm for 60 s, shaken for a uniform mixing and then incubated at room temperature for 60 min. 20 μL of test stop solution was added to stop reaction. Centrifugation was performed at 1,000 rpm for 60 s, and shaking was performed for uniform mixing. After 30 min of standing, the microplate reader was used to perform reading.
The inhibition rate was calculated according to the following formula: Inhibition rate (%)=(Signal_Max-Signal_sample)/(Signal_Max-Signal_min)×100 (6) Fitting of Dose-Response Curve
With the log value of concentration as the X axis and the percent inhibition rate as the Y axis, the log (inhibitor) vs. response-variable slope of analysis software GraphPad Prism 5 was used to fit a dose-response curve, thus obtaining the IC50 value of activity of each compound against the enzyme.

rhVAP-1 = biological target: T2, rhVAP-1 (Homo sapiens, UniProt Q16853); assay: Inhibitory activity against rhVAP-1 enzyme (Biological Example 2); assay type: biochemical; conditions: Table 2; benzylamine substrate, Amplex Red/HRP
T2 construct: purchased PeproTech
T2 sequence (Q16853 27-763 limits assumed): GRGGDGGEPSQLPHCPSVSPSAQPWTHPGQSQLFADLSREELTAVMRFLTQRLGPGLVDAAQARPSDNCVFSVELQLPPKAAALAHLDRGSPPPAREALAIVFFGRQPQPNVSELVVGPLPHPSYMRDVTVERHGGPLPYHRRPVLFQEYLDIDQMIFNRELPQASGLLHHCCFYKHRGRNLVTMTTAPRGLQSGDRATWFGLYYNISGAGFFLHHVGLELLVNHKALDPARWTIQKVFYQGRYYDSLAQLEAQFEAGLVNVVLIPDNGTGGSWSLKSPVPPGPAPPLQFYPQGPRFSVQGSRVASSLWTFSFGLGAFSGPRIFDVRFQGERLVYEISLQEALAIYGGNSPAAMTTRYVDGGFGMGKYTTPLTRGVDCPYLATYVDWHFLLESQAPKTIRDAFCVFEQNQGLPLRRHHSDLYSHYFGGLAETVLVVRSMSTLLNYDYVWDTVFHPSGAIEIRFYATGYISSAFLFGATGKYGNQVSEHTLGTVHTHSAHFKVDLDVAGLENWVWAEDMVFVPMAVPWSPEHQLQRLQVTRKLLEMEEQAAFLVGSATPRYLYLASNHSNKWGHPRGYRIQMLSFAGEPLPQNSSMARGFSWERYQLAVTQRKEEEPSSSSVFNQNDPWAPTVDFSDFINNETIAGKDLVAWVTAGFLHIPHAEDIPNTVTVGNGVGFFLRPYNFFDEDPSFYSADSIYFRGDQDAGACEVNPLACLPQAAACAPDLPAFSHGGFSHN
How it was run: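 Enzyme was preincubated 30 min at 37 °C in PBS with a 10-point 3-fold compound dilution series. Benzylamine with Amplex Red/HRP was then added, and fluorescence (ex 580/em 620 nm) was read every 5 min for 30 min. Inhibition was taken from rates versus max wells, and IC50 from a variable-slope fit.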

| IC50 (MAO-B) | IC50 (rhVAP-1) | SMILES |
| --- | --- | --- |
| > 100 µM | – | NC/C(=C\F)Cn1ncc2c1CCN(C1CC1)C2=O [Compound A2 hydrochloride, (E)-1-(2-(aminomethyl)-3-fluoroallyl)-5-cyclopropyl-1,5,6,7-tetrahydro-4H-pyrazolo[4,3-c]pyridin-4-one] |
| > 100 µM | 0.023 µM | CCN1CCc2nn(C/C(=C/F)CN)cc2C1=O [Compound A6 hydrochloride, (E)-2-(2-(aminomethyl)-3-fluoroallyl)-5-ethyl-2,5,6,7-tetrahydro-4H-pyrazolo[4,3-c]pyridin-4-one] |
| > 100 µM | 0.046 µM | CC(C)(C)N1CCc2nn(C/C(=C/F)CN)cc2C1=O [Compound A7 hydrochloride, (E)-2-(2-(aminomethyl)-3-fluoroallyl)-5-tert-butyl-2,5,6,7-tetrahydro-4H-pyrazolo[4,3-c]pyridin-4-one] |
| > 100 µM | 0.044 µM | NC/C(=C\F)Cn1cc2c(c1)C(=O)N(C1CC1)CC2 [Compound A22, (E)-2-(2-(aminomethyl)-3-fluoroallyl)-5-cyclopropyl-2,5,6,7-tetrahydro-4H-pyrrolo[3,4-c]pyridin-4-one] |
| > 100 µM | 0.045 µM | CCN1CCc2cn(C/C(=C/F)CN)cc2C1=O [Compound A25, (E)-2-(2-(aminomethyl)-3-fluoroallyl)-5-ethyl-2,5,6,7-tetrahydro-4H-pyrrolo[3,4-c]pyridin-4-one] |
| > 100 µM | 0.033 µM | CCn1ccc2nn(C/C(=C/F)CN)cc2c1=O [Compound A28 hydrochloride, (E)-2-(2-(aminomethyl)-3-fluoroallyl)-5-ethyl-2,5-dihydro-4H-pyrazolo[4,3-c]pyridin-4-one] |
| > 100 µM | 0.06 µM | CCn1ccc2c(cnn2C/C(=C/F)CN)c1=O [Compound A29 hydrochloride, (E)-1-(2-(aminomethyl)-3-fluoroallyl)-5-ethyl-1,5-dihydro-4H-pyrazolo[4,3-c]pyridin-4-one] |
| > 100 µM | 0.015 µM | Cl.NC/C(=C\F)Cn1cc2c(c1Br)CCN(C1CC1)C2=O [Compound A32 hydrochloride, (E)-2-(2-(aminomethyl)-3-fluoroallyl)-1-bromo-5-cyclopropyl-2,5,6,7-tetrahydro-4H-pyrrolo[3,4-c]pyridin-4-one] |
| > 100 µM | 0.023 µM | NC/C(=C\F)Cn1c(Br)c2c(c1Br)C(=O)N(C1CC1)CC2 [Compound A33 hydrochloride, (E)-2-(2-(aminomethyl)-3-fluoroallyl)-1,3-dibromo-5-cyclopropyl-2,5,6,7-tetrahydro-4H-pyrrolo[3,4-c]pyridin-4-one] |
| 92.7 µM | 0.024 µM | Cc1c2c(cn1C/C(=C/F)CN)C(=O)N(C1CC1)CC2 [Compound A35 hydrochloride, (E)-2-(2-(aminomethyl)-3-fluoroallyl)-5-cyclopropyl-1-methyl-2,5,6,7-tetrahydro-4H-pyrrolo[3,4-c]pyridin-4-one] |
| > 100 µM | 0.008 µM | NC/C(=C\F)Cn1cc2c(=O)n(C3CC3)ccc2n1 [Compound A41, (E)-2-(2-(aminomethyl)-3-fluoroallyl)-5-cyclopropyl-2,5-dihydro-4H-pyrazolo[4,3-c]pyridin-4-one] |
| > 100 µM | 0.017 µM | Cl.NC/C(=C\F)Cn1cc2c(c1Cl)CCN(C1CC1)C2=O [Compound A42 hydrochloride, (E)-2-(2-(aminomethyl)-3-fluoroallyl)-1-chloro-5-cyclopropyl-2,5,6,7-tetrahydro-4H-pyrrolo[3,4-c]pyridin-4-one] |
| > 100 µM | 0.04 µM | CNC(=O)c1cnn(C/C(=C/F)CN)c1 [Compound B1, (E)-1-(2-(aminomethyl)-3-fluoroallyl)-N-methyl-1H-pyrazole-4-carboxamide] |
